Read-outs that look alike come from different tables or passages of the source.
Tests used:
[1] = system: T- and B- lymphocyte isolated from mouse spleens; assay: Lymphocyte Blastogenesis Assay; assay type: in vivo; conditions: for RPMI: no mitogen (Table 8); for activation at 12.5 mg/kg / activation at 25 mg/kg / activation at 50 mg/kg / activation at 100 mg/kg / activation at 200 mg/kg: Mus musculus, Lymphocyte
Excerpt: This assay measures the ability of the compound under test to affect DNA synthesis and mitosis of T- and B- lymphocyte isolated from mouse spleens.
Mitogens are substances which stimulate DNA synthesis and mitosis. The mitogens used in these studies were phytohemaglutinin (PHA) which is isolated from the red kidney bean and concanavalin-A (Con-A) which is isolated form the jack bean. Con-A binds to specific receptors (glycoproteins) containing mannosyl or glycosyl moieties and stimulates all murine T-cells to synthesize DNA, divide, and release lymphokines. Con-A in a soluble form allows distinction between T- and B-cells in the mouse, because although both T- and B-cells can bind 106 molecules of Con-A per cell, only T-cells are stimulated when this lectin is presented in a soluble form. PHA stimulates only subpopulations, T-2 cells, of T-cells in the mouse. Also, Con-A stimulates the production of cytokines such as Interleukin-2 (IL-2). In humans, both T- and B-cells are probably stimulated. The activation of B-cells by PHA may be indirect and mediated by the release of soluble mediators from PHA-activated T-cells.
The lymphocyte blastogenesis test is a method to assess the ability of immunocompetent T- or B-cells to respond to a polyclonal mitogen (i.e. PHA or Con-A) or a specific antigen. It may be performed on lymphocytes obtained from mice treated with immunostimulators in vivo or the entire assay can be performed in vitro. The assay as described below uses minimal doses of polyclonal mitogens to induce blastogenesis (proliferation measure by DNA synthesis), in order to be able to assess the phenomena of amplification.
1. Sacrifice two mice/experimental group by cervical dislocation.
14. […]
15. Include in the experiment a control plate which contains the same cells group as above, but receive a 0.1 ml of media instead of mitogen.
18. After 48 hours all wells receive 0.025 mls of a 0.4 microcurie/ml solution of C-14 methyl thymidine and incubate at 37 C, 5% CO-2 for 18 hours.

[2] = system: plaque forming cells, antibody specific to sheep red blood cells; assay: Jerne Hemolytic Plaque Assay; assay type: in vivo, mice
Method: This assay measures the IgM or IgG isotypes of specific antibody produced by antigen used to immunize the mice. […] The direct assay detects IgM and the indirect assay detects IgG-specific antibody.
Washed spleen cells are added to an agarose (FMC, Rockland, Me.) preparation containing sheep red blood cells (SRBC) and guinea pig complement. A drop of this mixture is transferred to a small petri dish; a cover slip is then placed over the drop to flatten it. The agarose prep is allowed to solidify. Then, the dishes are placed in a small humidified changer inside a CO-2 incubator overnight.
Small pinpoint cleared areas (plaques) will be observed under the cover slip. The cleared areas are caused by antibody, specific to the SRBC's being released by stimulated spleen cells and in conjunction with the complement, lyse surrounding SRBC's. These plaque forming cells (PFC's) are counted, and calculations are performed to obtain PFC's per […] spleen cells.
1. Spleens are harvested from mice according to a standard procedure and adjusted to a final concentration of 20% in […].
14. Count and record the number of hemolytic plaques per plate. Average plaque counts between the duplicate sets. Multiply the average number of plaques per group by 2.5 to obtain the number of plaque forming cells per million spleen cells.

SMILES: O=C1CCCC(C2(O)C(=O)OC3C(O)COC32O)C1 (single isomer, unassigned) [KCBL-B]
- CON-A 2.25 ug/ml ([1]; 12.5 mg/kg (Table 8)): 865.6 counts per minute
- PHA 14.0 ug/ml ([1]; 12.5 mg/kg (Table 8)): 1733.1 counts per minute
- RPMI ([1]; 12.5 mg/kg): 67.6 counts per minute
- CON-A 2.25 ug/ml ([1]; 25 mg/kg (Table 8)): 1309.6 counts per minute
- PHA 14.0 ug/ml ([1]; 25 mg/kg (Table 8)): 3512.1 counts per minute
- RPMI ([1]; 25 mg/kg): 84.3 counts per minute
- CON-A 2.25 ug/ml ([1]; 50 mg/kg (Table 8)): 1130.6 counts per minute
- PHA 14.0 ug/ml ([1]; 50 mg/kg (Table 8)): 2540.7 counts per minute
- RPMI ([1]; 50 mg/kg): 56.2 counts per minute
- CON-A 2.25 ug/ml ([1]; 100 mg/kg (Table 8)): 1736.7 counts per minute
- PHA 14.0 ug/ml ([1]; 100 mg/kg (Table 8)): 3515.4 counts per minute
- RPMI ([1]; 100 mg/kg): 84.9 counts per minute
- CON-A 2.25 ug/ml ([1]; 200 mg/kg (Table 8)): 2008.0 counts per minute
- PHA 14.0 ug/ml ([1]; 200 mg/kg (Table 8)): 3305.8 counts per minute
- RPMI ([1]; 200 mg/kg): 52.0 counts per minute
- activation at 12.5 mg/kg ([1]; 12.5 mg/kg (Table 8), read-out: % INCREASE (CON-A 2.25 ug/ml)): 123%
- activation at 12.5 mg/kg ([1]; 12.5 mg/kg (Table 8), read-out: % INCREASE (PHA 14.0 ug/ml)): 12.1%
- activation at 25 mg/kg ([1]; 25 mg/kg (Table 8), read-out: % INCREASE (CON-A 2.25 ug/ml)): 237%
- activation at 25 mg/kg ([1]; 25 mg/kg (Table 8), read-out: % INCREASE (PHA 14.0 ug/ml)): 127%
- activation at 50 mg/kg ([1]; 50 mg/kg (Table 8), read-out: % INCREASE (CON-A 2.25 ug/ml)): 191%
- activation at 50 mg/kg ([1]; 50 mg/kg (Table 8), read-out: % INCREASE (PHA 14.0 ug/ml)): 64.4%
- activation at 100 mg/kg ([1]; 100 mg/kg (Table 8), read-out: % INCREASE (CON-A 2.25 ug/ml)): 347%
- activation at 100 mg/kg ([1]; 100 mg/kg (Table 8), read-out: % INCREASE (PHA 14.0 ug/ml)): 128%
- activation at 200 mg/kg ([1]; 200 mg/kg (Table 8), read-out: % INCREASE (CON-A 2.25 ug/ml)): 418%
- activation at 200 mg/kg ([1]; 200 mg/kg (Table 8), read-out: % INCREASE (PHA 14.0 ug/ml)): 114%
- % INCREASE ([2]; 25 mg/kg (Table 10)): 39%
- PFC ([2]; 25 mg/kg (Table 10)): 66.25 PFC/1 MILLION CELLS
- % INCREASE ([2]; 50 mg/kg (Table 10)): 218%
- PFC ([2]; 50 mg/kg (Table 10)): 151.25 PFC/1 MILLION CELLS
- % INCREASE ([2]; 100 mg/kg (Table 10)): 232%
- PFC ([2]; 100 mg/kg (Table 10)): 157.5 PFC/1 MILLION CELLS
- % INCREASE ([2]; 200 mg/kg (Table 10)): 171%
- PFC ([2]; 200 mg/kg (Table 10)): 128.75 PFC/1 MILLION CELLS
